Reference: patent publication US8673586B2, “Compounds that interact with kinases” (Alchemia Limited, priority 2002, dated 2014)

How the values were obtained:
MSK-1 = MSK-1 (Homo sapiens, UniProt O75582); conditions: inhibitor concentration 20 μM; cited from earlier work
S6K1 = S6K1 (Homo sapiens, UniProt P23443); conditions: inhibitor concentration 20 μM; cited from earlier work
PRK2 = PRK2 (Homo sapiens, UniProt Q16513); conditions: inhibitor concentration 20 μM; cited from earlier work
KIT = molecular target: T1, KIT (Homo sapiens, UniProt P10721); assay: KIT kinase assay, 33P-ATP incorporation, residual activity; assay type: biochemical
T1 construct: made in house
Protocol: (§1) Compounds were tested in vitro as follows.
(§2) Recombinant protein kinases, which were expressed as fusion proteins in SF9 insect cells or E. coli, were used for all in vitro assays. The purity and identity of each kinase was checked by SDS-PAGE/silver staining and by western blot analysis with specific antibodies.
(§3) All kinase assays except for p38a (see below) were performed in 96-well micro-titre plates. The assay components included assay buffer, ATP, test compound, enzyme and substrate.
(§4) The assay for all enzymes (except for the PKC see below, contained 60 mM HEPES-NaOH, pH 7.5, 3 mM MgCl2, 3 mM MnCl2, 3 μM Na-orthovanadate, 1 mM […], 0.1 μM [γ-^33P]-ATP (approx. 5×10^5 cpm per well).
(§5) The reaction cocktails were incubated at 30° C. for 80 minutes. The reaction was stopped with 50 μl of 2% (v/v) H3PO4, plates were aspirated and washed twice with 200 μl of H2O or 0.9% (w/v) NaCl. Incorporation of ^33Pi was determined with a microplate scintillation counter.
(§6) All data is presented as residual activity, which is the activity of the enzyme in the presence of the stipulated concentration of inhibitor or compound. 100% activity is the maximum activity of the enzyme in the absence of any inhibitor or compound.
(§7) In all experiments the Z′ value was calculated according to Zhang et al to (J-H Zhang, T. D. Y Chung, K. R. Oldenburg (1999) Journal of Biomolecular Screening 4:67-73) using the standard deviations and mean values of the positive and negative controls. Z′=1−(3*Stdevneg+3*Stdevpos)/(Meanpos−Meanneg)
(§8) Only data where the Z′ value was >0.5 was used.

EGF-R = EGF-R (Homo sapiens, UniProt P00533); assay: EGF-R kinase assay, 33P-ATP incorporation, residual activity; assay type: biochemical; conditions: tested at 25 micromolar
Protocol: as §1, §2, §3, §4, §5, §6, §7, §8

TIE2 = molecular target: T2, TIE2 (Homo sapiens, UniProt Q02763); assay: TIE2 kinase assay, 33P-ATP incorporation, residual activity; assay type: biochemical
T2 construct: made in house
Protocol: as §1, §2, §3, §4, §5, §6, §7, §8

PDGF-Ralpha = molecular target: T3, PDGF-Ralpha (Homo sapiens, UniProt P16234); assay: PDGF-Ralpha kinase assay, 33P-ATP incorporation, residual activity; assay type: biochemical; conditions: tested at 25 micromolar
T3 construct: made in house
Protocol: as §1, §2, §3, §4, §5, §6, §7, §8

CDK2/CycA = CDK2/CycA (Homo sapiens, UniProt P24941); assay: CDK2/CycA kinase assay, 33P-ATP incorporation, residual activity; assay type: biochemical; conditions: tested at 25 micromolar
Protocol: as §1, §2, §3, §4, §5, §6, §7, §8

MET = molecular target: T4, MET (Homo sapiens, UniProt P08581); assay: MET kinase assay, 33P-ATP incorporation, residual activity; assay type: biochemical; set-up: key: % residual kinase activity (100% = no inhibitor); conditions: tested at 25 micromolar
T4 construct: made in house
Protocol: as §1, §2, §3, §4, §5, §6, §7, §8

VEGF-R2 = molecular target: T5, VEGF-R2 (Homo sapiens, UniProt P35968); assay: VEGF-R2 kinase assay, 33P-ATP incorporation, residual activity; assay type: biochemical; set-up: key: % residual kinase activity (100% = no inhibitor)
T5 construct: made in house
Protocol: as §1, §2, §3, §4, §5, §6, §7, §8

ABL = ABL (Homo sapiens, UniProt P00519); assay: ABL kinase assay, 33P-ATP incorporation, residual activity; assay type: biochemical; conditions: tested at 25 micromolar
Protocol: as §1, §2, §3, §4, §5, §6, §7, §8

PKC-beta1 = PKC-beta1 (Homo sapiens, UniProt P05771); assay: PKC-beta1 kinase assay, 33P-ATP incorporation, residual activity; assay type: biochemical; conditions: tested at 25 micromolar
Protocol: as §1, §2, §3
The assay for the PKCs contained 60 mM HEPES-NaOH, pH 7.5, 1 mM EDTA, 1.25 mM EGTA, 5 mM MgCl2, 1.32 mM CaCl2, 5 μg/ml Phosphatidylserine, 1 μg/ml 1.2 Dioleyl-glycerol, 1.2 mM DTT, 50 μg/ml PEG20000, 0.1 μM [γ-^33P]-ATP (approx. 5×10^5 cpm per well).
as §5, §6, §7, §8

[1] = molecular target: mitogen-activated protein kinase p38α (Homo sapiens, UniProt Q16539); assay: p38α assay, NanoCarrier 2080 format, fluorescence polarization (2D-FIDA anisotropy); assay type: biochemical
Protocol: as §1, §2
The mitogen-activated protein kinase p38α assays were done in a proprietary microassay NanoCarrier™ 2080 format. In these assays phosphorylation was detected by a phospho-substrate specific monoclonal antibody in an indirect competition assay. The degree of binding of the antibody to the phospho-substrate was measured by fluorescence polarization using 2D-FIDA anisotrophy. In these experiments the final concentration of the enzyme was 1.6 nM and the substrate was 2 μM.
as §6, §7, §8

[2] = compounds marked !: tested at 2.5 micromolar

ABL, sequence (P00519 whole entry, species assumed): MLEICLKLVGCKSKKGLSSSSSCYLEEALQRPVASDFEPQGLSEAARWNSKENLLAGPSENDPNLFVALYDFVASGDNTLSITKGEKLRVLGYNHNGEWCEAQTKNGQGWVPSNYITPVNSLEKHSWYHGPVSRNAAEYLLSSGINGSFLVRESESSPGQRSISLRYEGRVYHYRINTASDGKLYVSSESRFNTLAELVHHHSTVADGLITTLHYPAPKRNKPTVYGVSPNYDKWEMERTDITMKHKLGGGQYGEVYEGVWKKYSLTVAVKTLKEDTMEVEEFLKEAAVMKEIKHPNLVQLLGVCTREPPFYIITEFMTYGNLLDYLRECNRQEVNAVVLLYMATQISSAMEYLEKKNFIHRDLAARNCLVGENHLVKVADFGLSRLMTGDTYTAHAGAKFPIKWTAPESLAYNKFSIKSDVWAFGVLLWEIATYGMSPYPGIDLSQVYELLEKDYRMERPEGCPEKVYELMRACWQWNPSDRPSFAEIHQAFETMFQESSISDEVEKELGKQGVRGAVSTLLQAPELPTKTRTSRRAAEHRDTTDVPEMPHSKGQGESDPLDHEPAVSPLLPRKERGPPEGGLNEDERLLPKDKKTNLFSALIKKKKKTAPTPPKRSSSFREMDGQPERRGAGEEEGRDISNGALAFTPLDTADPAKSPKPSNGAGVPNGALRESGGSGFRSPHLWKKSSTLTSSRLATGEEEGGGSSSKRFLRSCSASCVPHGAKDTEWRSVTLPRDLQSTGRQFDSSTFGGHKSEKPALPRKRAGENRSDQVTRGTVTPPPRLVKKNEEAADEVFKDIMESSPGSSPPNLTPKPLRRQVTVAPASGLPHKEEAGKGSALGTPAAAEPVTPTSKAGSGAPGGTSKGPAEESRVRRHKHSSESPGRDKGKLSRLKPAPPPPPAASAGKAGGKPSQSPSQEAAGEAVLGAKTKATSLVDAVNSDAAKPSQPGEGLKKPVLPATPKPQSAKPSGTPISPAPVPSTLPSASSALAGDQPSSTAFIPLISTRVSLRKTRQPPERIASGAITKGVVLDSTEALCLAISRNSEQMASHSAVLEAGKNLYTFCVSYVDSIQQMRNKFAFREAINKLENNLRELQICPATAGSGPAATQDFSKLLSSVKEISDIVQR
T3 sequence (P16234 24-1089, species assumed): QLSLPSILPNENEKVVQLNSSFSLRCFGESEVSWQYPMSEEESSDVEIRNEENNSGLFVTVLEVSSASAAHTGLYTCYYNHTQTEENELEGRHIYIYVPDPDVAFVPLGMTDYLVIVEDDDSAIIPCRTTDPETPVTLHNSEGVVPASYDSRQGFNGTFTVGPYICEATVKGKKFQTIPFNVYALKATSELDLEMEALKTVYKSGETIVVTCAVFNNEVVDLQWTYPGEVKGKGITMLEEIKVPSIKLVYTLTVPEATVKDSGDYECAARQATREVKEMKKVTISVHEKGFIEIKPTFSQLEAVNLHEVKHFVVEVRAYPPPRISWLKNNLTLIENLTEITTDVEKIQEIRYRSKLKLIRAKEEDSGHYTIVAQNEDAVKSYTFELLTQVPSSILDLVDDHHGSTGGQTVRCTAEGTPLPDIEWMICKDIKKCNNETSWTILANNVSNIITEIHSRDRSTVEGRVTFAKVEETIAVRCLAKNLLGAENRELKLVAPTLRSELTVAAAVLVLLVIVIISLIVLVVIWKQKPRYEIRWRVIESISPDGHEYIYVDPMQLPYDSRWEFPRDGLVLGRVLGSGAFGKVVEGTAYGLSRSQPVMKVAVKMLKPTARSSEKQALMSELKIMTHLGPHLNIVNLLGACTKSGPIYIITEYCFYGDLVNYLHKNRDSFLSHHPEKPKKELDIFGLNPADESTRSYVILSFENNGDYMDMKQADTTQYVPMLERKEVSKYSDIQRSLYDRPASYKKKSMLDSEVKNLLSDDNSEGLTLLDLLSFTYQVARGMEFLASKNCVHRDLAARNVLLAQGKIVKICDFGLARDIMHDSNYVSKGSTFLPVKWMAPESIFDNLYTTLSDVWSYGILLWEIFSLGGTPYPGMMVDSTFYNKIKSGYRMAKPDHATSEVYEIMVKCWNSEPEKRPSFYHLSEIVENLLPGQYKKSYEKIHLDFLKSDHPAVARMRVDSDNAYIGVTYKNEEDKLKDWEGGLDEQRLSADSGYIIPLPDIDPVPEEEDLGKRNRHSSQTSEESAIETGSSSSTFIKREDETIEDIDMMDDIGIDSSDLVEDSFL
T5 sequence (P35968 20-1356): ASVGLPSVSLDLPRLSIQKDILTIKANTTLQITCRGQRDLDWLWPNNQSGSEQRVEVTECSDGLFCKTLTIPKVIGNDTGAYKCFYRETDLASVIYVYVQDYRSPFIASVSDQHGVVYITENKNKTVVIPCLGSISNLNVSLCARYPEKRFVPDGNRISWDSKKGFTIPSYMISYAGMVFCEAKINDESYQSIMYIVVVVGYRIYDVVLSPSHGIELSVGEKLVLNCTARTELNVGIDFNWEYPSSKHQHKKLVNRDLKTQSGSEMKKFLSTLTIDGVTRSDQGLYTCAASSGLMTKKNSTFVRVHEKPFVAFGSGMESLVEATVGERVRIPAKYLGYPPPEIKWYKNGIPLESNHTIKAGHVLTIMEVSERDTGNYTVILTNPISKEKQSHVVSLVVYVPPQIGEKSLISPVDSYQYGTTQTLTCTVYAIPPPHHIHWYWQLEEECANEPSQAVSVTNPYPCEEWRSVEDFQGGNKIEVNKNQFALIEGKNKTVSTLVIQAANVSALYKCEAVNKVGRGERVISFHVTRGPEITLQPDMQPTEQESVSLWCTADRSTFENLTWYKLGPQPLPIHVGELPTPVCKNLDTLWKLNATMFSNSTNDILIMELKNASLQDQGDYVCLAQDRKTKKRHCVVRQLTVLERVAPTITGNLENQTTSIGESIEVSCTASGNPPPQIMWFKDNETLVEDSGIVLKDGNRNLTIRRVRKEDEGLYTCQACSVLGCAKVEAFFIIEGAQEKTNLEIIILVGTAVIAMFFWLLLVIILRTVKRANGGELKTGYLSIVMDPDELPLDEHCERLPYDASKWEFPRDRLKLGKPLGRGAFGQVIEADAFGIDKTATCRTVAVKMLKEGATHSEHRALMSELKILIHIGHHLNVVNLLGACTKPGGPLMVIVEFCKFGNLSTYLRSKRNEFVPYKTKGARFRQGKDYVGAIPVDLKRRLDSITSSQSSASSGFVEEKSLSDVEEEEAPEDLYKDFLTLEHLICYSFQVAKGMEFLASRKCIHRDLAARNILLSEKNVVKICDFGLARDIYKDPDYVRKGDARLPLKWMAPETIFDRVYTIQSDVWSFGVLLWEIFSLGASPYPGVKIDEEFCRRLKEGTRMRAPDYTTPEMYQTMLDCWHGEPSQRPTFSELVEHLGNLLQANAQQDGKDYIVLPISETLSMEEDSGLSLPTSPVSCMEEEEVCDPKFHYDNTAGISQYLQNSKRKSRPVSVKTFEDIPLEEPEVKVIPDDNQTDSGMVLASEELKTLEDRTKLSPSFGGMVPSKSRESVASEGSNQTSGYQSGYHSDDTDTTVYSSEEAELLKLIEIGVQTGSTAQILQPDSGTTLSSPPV
T2 sequence (Q02763 23-1124, species assumed): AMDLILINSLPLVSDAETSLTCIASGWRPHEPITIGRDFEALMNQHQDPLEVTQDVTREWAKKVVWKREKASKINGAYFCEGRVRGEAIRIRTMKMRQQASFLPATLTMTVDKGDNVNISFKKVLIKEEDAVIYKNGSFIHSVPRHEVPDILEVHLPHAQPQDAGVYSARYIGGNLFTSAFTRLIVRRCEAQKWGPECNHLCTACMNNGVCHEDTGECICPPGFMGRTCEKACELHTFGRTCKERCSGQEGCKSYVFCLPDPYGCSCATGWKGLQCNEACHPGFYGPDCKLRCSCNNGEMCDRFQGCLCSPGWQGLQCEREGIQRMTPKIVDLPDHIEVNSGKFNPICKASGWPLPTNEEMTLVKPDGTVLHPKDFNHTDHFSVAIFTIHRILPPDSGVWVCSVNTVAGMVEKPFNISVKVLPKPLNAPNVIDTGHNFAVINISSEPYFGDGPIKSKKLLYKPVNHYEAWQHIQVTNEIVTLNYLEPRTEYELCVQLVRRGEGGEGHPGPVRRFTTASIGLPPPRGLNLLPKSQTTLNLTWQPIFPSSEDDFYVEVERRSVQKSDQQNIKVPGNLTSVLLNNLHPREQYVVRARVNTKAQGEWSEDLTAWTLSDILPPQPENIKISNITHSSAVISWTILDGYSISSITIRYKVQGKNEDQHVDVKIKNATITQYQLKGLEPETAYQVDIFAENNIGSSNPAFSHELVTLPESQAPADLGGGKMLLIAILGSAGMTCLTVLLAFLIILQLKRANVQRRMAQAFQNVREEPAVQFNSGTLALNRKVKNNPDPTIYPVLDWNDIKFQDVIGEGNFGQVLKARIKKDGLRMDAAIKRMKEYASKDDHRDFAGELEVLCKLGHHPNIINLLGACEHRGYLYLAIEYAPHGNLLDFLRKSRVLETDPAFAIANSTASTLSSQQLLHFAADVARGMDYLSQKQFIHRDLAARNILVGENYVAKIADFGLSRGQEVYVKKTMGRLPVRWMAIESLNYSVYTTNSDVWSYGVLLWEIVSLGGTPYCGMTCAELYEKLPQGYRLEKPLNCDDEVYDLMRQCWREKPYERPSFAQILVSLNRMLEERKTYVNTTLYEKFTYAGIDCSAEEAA
mitogen-activated protein kinase p38α, sequence (Q16539 whole entry, species assumed): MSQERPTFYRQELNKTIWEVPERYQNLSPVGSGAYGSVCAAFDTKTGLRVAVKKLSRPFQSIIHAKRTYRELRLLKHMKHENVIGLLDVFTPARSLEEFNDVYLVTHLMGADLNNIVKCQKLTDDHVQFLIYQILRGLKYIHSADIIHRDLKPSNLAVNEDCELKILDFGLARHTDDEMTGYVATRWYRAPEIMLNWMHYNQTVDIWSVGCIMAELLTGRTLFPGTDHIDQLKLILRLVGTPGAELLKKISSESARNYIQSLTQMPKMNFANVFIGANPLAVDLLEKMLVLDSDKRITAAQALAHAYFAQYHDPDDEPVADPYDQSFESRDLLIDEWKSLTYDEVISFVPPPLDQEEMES

| Structure (SMILES) | residual activity MSK1 (MSK-1) [%] | residual activity S6K1 (S6K1) [%] | residual activity PRK2 (PRK2) [%] | c-Kit (KIT; tested at 25 micromolar) | EGF-R (EGF-R) | Tie2 (TIE2; tested at 25 micromolar) | PDGFalpha (PDGF-Ralpha) | CDK2 (CDK2/CycA) | MET (MET) | VEGF (VEGF-R2; tested at 25 micromolar) | ABL (ABL) | PKC (PKC-beta1) | P38 ([1]; tested at 25 micromolar) | c-Kit (KIT; [2]) | Tie2 (TIE2; [2]) | VEGF (VEGF-R2; [2]) | P38 [1, 2] |
| --- | --- | --- | --- | --- | --- | --- | --- | --- | --- | --- | --- | --- | --- | --- | --- | --- | --- |
| O=S(=O)(c1cccc2cnccc12)N1CCCNCC1 [HA1077] | 19 | 32 | 15 |  |  |  |  |  |  |  |  |  |  |  |  |  |  |
| Cc1cccc(CSc2nc3cc(C(N)=O)ccc3n2C[C@H]2O[C@@H](n3cnc4c(N)ncnc43)[C@H](O)[C@@H]2O)c1 [compound 100] |  |  |  | 52 | 69 | 42 | 106 | 70 | 88 | 58 | 109 | 80 |  |  |  |  |  |
| CCCCCCCCSc1nc2cc(C(N)=O)ccc2n1C[C@H]1O[C@@H](n2nnc(C(N)=O)c2-c2ccccc2)[C@H](O)[C@@H]1O [compound 146] |  |  |  | 53 | 94 | 71 | 127 | 270 | 78 | 101 | 115 | 142 |  |  |  |  |  |
| Nc1ncnc2c1ncn2[C@@H]1O[C@H](CN2C(=O)C(Cc3ccccc3)N(Cc3ccccc3[N+](=O)[O-])C2=O)[C@@H](O)[C@H]1O (some centres unmarked) [compound 212] |  |  |  | 12 | 23 | 1 | 38 | 25 | 46 | 10 | 41 | 26 |  |  |  |  |  |
| Nc1ncnc2c1ncn2[C@@H]1O[C@H](CN2C(=O)C(Cc3ccccc3)N(Cc3cccn3S(=O)(=O)c3ccccc3)C2=O)[C@@H](O)[C@H]1O (some centres unmarked) [compound 223] |  |  |  | 109 | 22 | 0 | 17 | 40 | 31 | 11 | 24 | 10 |  |  |  |  |  |
| CCn1c2ccccc2c2ccc(CN3C(=O)N(C[C@H]4O[C@@H](n5nnc(C(N)=O)c5-c5ccccc5)[C@H](O)[C@@H]4O)C(=O)C3Cc3ccccc3)cc21 (some centres unmarked) [compound 246] |  |  |  | 6 | 15 | −1 | 28 | 26 | 27 | 8 | 30 | 13 |  |  |  |  |  |
| CCCCCCCCOc1ccc(-c2nc3cc(C(N)=O)ccc3n2C[C@H]2O[C@@H](n3nnc(C(N)=O)c3-c3ccccc3)[C@H](O)[C@@H]2O)cc1 [compound 279] |  |  |  | 17 | 66 | 12 | 85 | 20 | 72 | 31 | 6 | 80 |  |  |  |  |  |
| CCCc1c(C(N)=O)nnn1[C@@H]1O[C@H](CNCc2nc3cc(C(N)=O)ccc3n2-c2ccc(-c3ccccc3)cc2)[C@@H](O)[C@H]1O [compound 345] |  |  |  | 40 | 58 | 41 | 82 | 67 | 87 | 54 | 74 | 65 |  |  |  |  |  |
| CCCc1c(C(N)=O)nnn1[C@@H]1O[C@H](Cn2c(-c3ccc(F)c(C(F)(F)F)c3)nc3cc(C(N)=O)ccc32)[C@@H](O)[C@H]1O [compound 456] |  |  |  | 92 | 96 | 91 | 113 | 28 | 103 | 96 | 107 | 104 |  |  |  |  |  |
| Nc1ncnc2c1ncn2[C@@H]1O[C@H](CN2C(=O)C(Cc3ccccc3)N(Cc3ccccc3Sc3ccc(Cl)cc3)C2=O)[C@@H](O)[C@H]1O (some centres unmarked) [compound 604] |  |  |  | 13 | 27 | 3 | 46 | 30 | 46 | 18 | 49 | 50 | 100 |  |  |  |  |
| Nc1ncnc2c1ncn2[C@@H]1O[C@H](CN2C(=O)C(Cc3ccccc3)N(Cc3cccs3)C2=O)[C@@H](O)[C@H]1O (some centres unmarked) [compound 605] |  |  |  | 18 | 20 | 5 | 56 | 26 | 54 | 14 | 55 | 27 | 100 |  |  |  |  |
| NC(=O)c1nnn([C@@H]2O[C@H](Cn3c(-c4ccc(OCc5ccccc5)cc4)nc4cc(Cl)c(Cl)cc43)[C@@H](O)[C@H]2O)c1-c1ccccc1 [compound 668] |  |  |  |  |  |  |  |  |  |  |  |  |  | 16 | 1 |  |  |
| NC(=O)c1nnn([C@@H]2O[C@H](Cn3c(-c4ccc(OCc5ccccc5)cc4)nc4cc(Cl)c(Cl)cc43)[C@@H](O)[C@H]2O)c1-c1ccc(Cl)cc1 [compound 669] |  |  |  |  |  |  |  |  |  |  |  |  |  | 11 | 1 | 34 | 97 |
| COc1ccc(-c2c(C(N)=O)nnn2[C@@H]2O[C@H](Cn3c(-c4ccc(OCc5ccccc5)cc4)nc4cc(Cl)c(Cl)cc43)[C@@H](O)[C@H]2O)cc1 [compound 670] |  |  |  |  |  |  |  |  |  |  |  |  |  | 9 | 1 | 23 |  |
| CCCCCCCCOc1ccc(-c2nc3c(NC)ncnc3n2C[C@H]2O[C@@H](n3nnc(C(N)=O)c3-c3ccccc3)[C@H](O)[C@@H]2O)cc1 [compound 725] |  |  |  |  |  |  |  |  |  |  |  |  |  | 6 | 10 |  |  |
| Nc1ncnc2c1ncn2[C@@H]1O[C@H](Cn2c(-c3ccc(OCc4ccccc4)cc3)nc3ccccc32)[C@@H](O)[C@H]1O [compound 912] |  |  |  | 38 | 88 | 72 | 96 | 119 | 88 | 44 | 96 | 96 | 70 |  |  |  |  |
